For series [1], the target named is T1, 5-HT2B receptor (Homo sapiens, UniProt P41595).
T1 construct: expressed in transfected cells; host or cells: HEK293, stably transfected
The series is described as follows: cell-based. The note with it: for selectivity for 5-HT2A over 5-HT2B: functional, compared to closest N-methyl counterparts Int8, Int11, Int17. Format: cell-based. The procedure, abridged: (§1)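 FLIPR Tetra fluorescence read-out of calcium flux after compound addition. Receptor-expressing stable lines were used (HEK293 for 2A/2B; CHO with Gα15 for 1A), dye-loaded with Fluo-4 Direct and 2.5 mM final probenecid, 50 min at 37 °C.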

Series [2] can be described thus: in vitro. It is filed as in vitro ADME, human.
The target of series [3] is T2, 5-HT1B receptor (Homo sapiens, UniProt P28222).
T2 construct: expressed in transfected cells
T2 sequence (P28222 whole entry): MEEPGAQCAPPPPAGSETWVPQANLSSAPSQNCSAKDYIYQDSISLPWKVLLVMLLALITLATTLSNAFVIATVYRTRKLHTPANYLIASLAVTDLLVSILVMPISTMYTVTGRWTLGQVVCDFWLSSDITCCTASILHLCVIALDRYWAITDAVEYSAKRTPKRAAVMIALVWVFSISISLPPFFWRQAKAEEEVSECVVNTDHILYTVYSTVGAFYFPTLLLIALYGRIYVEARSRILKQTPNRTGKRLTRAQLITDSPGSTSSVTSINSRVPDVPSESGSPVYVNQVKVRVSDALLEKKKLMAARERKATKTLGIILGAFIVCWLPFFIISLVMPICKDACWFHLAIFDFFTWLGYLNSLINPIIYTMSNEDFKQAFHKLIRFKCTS
The experiment in a line: cAMP accumulation functional assay at 5-HT1B. Format: cell-based. The note with it: for Emax: read-out: 5-HT1B % Act @ Max Dose; for selectivity for 5-HT2A over 5-HT1B: functional, compared to the N-methyl prototype LSD. The procedure, abridged: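 Stably transfected human 5-HT1B cells were incubated 60 min at room temperature, after which detection reagent was applied for another 60 min at RT. The read-out was cAMP accumulation, used as a measure of agonist activity.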
(Changes in cAMP serve as a functional read-out for many G protein-coupled receptors.)

Series [4] is described as follows: in vitro. It is filed as in vitro ADME, mouse. An excerpt:
MLM Stability Pooled MLM from male CD-1 mice (BIOIVT M00501) were used.

For series [5], the target named is T3, 5-HT1A receptor (Homo sapiens, UniProt P08908).
T3 construct: expressed in transfected cells; host or cells: CHO cells, stably transfected
T3 sequence (P08908 1-422): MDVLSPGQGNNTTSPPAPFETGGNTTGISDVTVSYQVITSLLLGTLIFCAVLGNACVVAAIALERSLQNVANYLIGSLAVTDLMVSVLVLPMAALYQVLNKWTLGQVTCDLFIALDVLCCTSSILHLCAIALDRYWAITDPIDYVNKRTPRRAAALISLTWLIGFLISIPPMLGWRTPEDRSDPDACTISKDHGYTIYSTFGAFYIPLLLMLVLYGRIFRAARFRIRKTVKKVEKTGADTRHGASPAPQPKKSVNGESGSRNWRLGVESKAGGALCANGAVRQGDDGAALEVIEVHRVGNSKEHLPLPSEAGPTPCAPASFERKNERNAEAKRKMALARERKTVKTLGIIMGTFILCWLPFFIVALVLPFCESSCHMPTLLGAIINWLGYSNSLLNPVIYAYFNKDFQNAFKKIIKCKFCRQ
The experiment in a line: cell-based. The note with it: CHO, read-out: 5-HT1A % Act @ Max Dose. The procedure, abridged:
as §1

Series [6] has as its target T4, 5-HT2A receptor (Homo sapiens, UniProt P28223). The experiment in a line: cell-based. It is filed as cell-based. On the set-up: expressed in transfected cells; host or cells: HEK293, stably transfected. The procedure, abridged: as §1
Series [7] in a line: in vitro. Format: in vitro ADME, rat. The text has this:
RLM Stability Pooled RLM from male Sprague-Dawley rats (Xenotech R1000) were used.

For series [8], the target named is T4, 5-HT2A receptor. The experiment in a line: cell-based. The following applies: for Emax: read-out: 5-HT2A Arrestin % Act @ Max Dose. Format: cell-based. The procedure, abridged: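 Agonist activity expressed as percent of maximal control ligand signal after vehicle subtraction, from chemiluminescence (RLU). Cells carry ProLink-tagged 5-HT2A plus β-arrestin fused to β-gal deletion mutant; ligand-driven arrestin binding restores β-galactosidase activity (PathHunter). Cells pre-incubated at 37° C.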

[9] abbreviates: HEK293, agonist, Ca2+ flux, HEK293, max dose, read-out: 5-HT2B % Act @ Max Dose.
[10] abbreviates: HLM 0.50 mg/mL, NADPH 1 mM, 1 μM compound, pH 7.4, 37° C., 60 min.
[11] abbreviates: agonist, cAMP accumulation, max dose.
[12] abbreviates: MLM (male CD-1) 0.50 mg/mL, NADPH 1 mM, 1 μM compound, pH 7.4, 37° C., 60 min.
Setting [13] is: agonist, Ca2+ flux, CHO cells with Gα15, max dose.
[14] abbreviates: HEK293, agonist, Ca2+ flux, HEK293, max dose, read-out: 5-HT2A % Act @ Max Dose.
Where [15] appears, read: RLM (male Sprague-Dawley) 0.50 mg/mL, NADPH 1 mM, 1 μM compound, pH 7.4, 37° C., 60 min.
Setting [16] is: agonist, beta-arrestin recruitment, max dose.

The structures appear in SMILES notation. pEC50: −log10 of the molar value. Read-outs that look alike come from different tables or passages of the source.

T1 sequence (P41595 whole entry): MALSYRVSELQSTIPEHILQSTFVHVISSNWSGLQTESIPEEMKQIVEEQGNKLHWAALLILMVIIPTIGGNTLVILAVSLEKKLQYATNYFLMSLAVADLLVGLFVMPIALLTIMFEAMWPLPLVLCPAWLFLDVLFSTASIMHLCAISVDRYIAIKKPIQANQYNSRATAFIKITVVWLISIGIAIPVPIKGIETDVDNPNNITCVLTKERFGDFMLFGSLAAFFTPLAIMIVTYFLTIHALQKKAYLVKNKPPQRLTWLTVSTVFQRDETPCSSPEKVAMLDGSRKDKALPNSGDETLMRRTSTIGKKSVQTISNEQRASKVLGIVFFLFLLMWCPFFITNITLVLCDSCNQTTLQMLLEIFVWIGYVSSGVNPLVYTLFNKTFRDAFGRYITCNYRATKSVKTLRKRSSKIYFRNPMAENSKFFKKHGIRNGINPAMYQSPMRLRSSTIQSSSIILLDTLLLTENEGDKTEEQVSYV
T4 sequence (P28223 whole entry): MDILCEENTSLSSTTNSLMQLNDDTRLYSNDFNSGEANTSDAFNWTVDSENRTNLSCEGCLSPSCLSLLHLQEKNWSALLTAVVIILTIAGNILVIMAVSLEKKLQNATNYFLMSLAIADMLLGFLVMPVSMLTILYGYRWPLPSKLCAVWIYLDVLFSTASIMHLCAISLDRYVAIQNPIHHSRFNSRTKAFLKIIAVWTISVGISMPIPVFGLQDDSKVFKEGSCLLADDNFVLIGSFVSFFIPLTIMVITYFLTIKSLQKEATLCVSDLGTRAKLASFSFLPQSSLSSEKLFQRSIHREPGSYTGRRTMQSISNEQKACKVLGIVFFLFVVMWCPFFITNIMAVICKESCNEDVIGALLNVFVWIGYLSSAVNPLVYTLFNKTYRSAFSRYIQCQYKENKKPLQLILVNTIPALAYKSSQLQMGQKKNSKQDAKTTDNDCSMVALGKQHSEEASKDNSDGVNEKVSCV

`CCCN1C[C@H](C(=O)N2[C@@H](C)C[C@@H]2C)C=C2c3cccc4[nH]cc(c34)C[C@H]21` [Compound 4, ((2S,4S)-2,4-dimethylazetidin-1-yl)((6aR,9R)-7-propyl-4,6,6a,7,8,9-hexahydroindolo[4,3-fg]quinolin-9-yl)methanone]: the Emax in series [1] (setting [9]) stood at 87.5%; in series [3] (setting [11]), 96%; in series [5] (setting [13]) it was 123%; in series [6] (setting [14]), 97.6%; in series [8] (setting [16]), 117%. In series [1], the “selectivity for 5-HT2A over 5-HT2B” value is on record as “more selective for 5-HT2A over 5-HT2B”. Besides, the “stability in HLM” value in series [2] is recorded as “much lower stability (higher clearance)”. In addition, the results for the “half-life (t1/2)” value in series [2] (setting [10]), in series [4] (setting [12]) and in series [7] (setting [15]) were 10.6 min, 0.8 min and 12.8 min, respectively. Further, the “selectivity for 5-HT2A over 5-HT1B” value in series [3] is given as “greater selectivity for 5-HT2A over 5-HT1B”. Further, the “stability in MLM” value in series [4] is recorded as “much lower stability (higher clearance)”. Also, the “stability in RLM” value in series [7] is reported as “much lower stability (higher clearance)”. The “5-HT2A arrestin agonist class” value in series [8] (beta-arrestin recruitment) is listed as “full agonists”.

Take `CCCN1C[C@H](C(=O)N(CC)CC)C=C2c3cccc4[nH]cc(c34)C[C@H]21` [Compound 1, (6aR,9R)—N,N-diethyl-7-propyl-4,6,6a,7,8,9-hexahydroindolo[4,3-fg]quinoline-9-carboxamide]: the Emax was found to be 104% in series [1] (setting [9]); 96.6% in series [3] (setting [11]); 95.6% in series [5] (setting [13]); 97% in series [6] (setting [14]); 129% in series [8] (setting [16]). Moreover, the “stability in HLM” value in series [2] is reported as “much lower stability (higher clearance)”. The “half-life (t1/2)” value turned out to be 15.1 min in series [2] (setting [10]), 2.3 min in series [4] (setting [12]) and 16.2 min in series [7] (setting [15]). Further, the “stability in MLM” value in series [4] is on record as “much lower stability (higher clearance)”. Also, in series [7], the “stability in RLM” value is given as “much lower stability (higher clearance)”. The “5-HT2A arrestin agonist class” value in series [8] (beta-arrestin recruitment) is “full agonists”.

Take `CCN(CC)C(=O)[C@@H]1C=C2c3cccc4[nH]cc(c34)C[C@H]2N(Cc2cccc(OC)c2)C1` [Compound 18, (6aR,9R)—N,N-diethyl-7-(3-methoxybenzyl)-4,6,6a,7,8,9-hexahydroindolo[4,3-fg]quinoline-9-carboxamide]: the Emax in series [1] (setting [9]) was determined as 4.69%; in series [3] (setting [11]), 83.3%; in series [5] (setting [13]), 28.9%; in series [6] (setting [14]), 61.1%; in series [8] (setting [16]) it was 89.6%. The “Intrinsic clearance (Clint)” value in series [2] (setting [10]) was 101.7 µL/min/mg; in series [4] (setting [12]) it was 523.7 µL/min/mg; in series [7] (setting [15]), 262.8 µL/min/mg. The “half-life (t1/2)” value in series [2] (setting [10]) was 13.6 min; in series [4] (setting [12]), 2.6 min; in series [7] (setting [15]) it was 5.3 min. Also, the negative-log EC50 (pEC50) (usually the EC50 on a negative log10 scale, so that one unit is a factor of ten) in series [8] (agonist, beta-arrestin recruitment, PathHunter, read-out: 5-HT2A Arrestin EC50) is 8.37.

As to `CCCN1C[C@H](C(=O)N[C@H](C)CC)C=C2c3cccc4[nH]cc(c34)C[C@H]21` [Compound 3, (6aR,9R)—N—((R)-sec-butyl)-7-propyl-4,6,6a,7,8,9-hexahydroindolo[4,3-fg]quinoline-9-carboxamide], the Emax worked out at 94.1% in series [1] (setting [9]); 98.7% in series [3] (setting [11]); 108% in series [5] (setting [13]); 103% in series [6] (setting [14]); 110% in series [8] (setting [16]). The “selectivity for 5-HT2A over 5-HT2B” value in series [1] is listed as “more selective for 5-HT2A over 5-HT2B”. Also, the “stability in HLM” value in series [2] is “much lower stability (higher clearance)”. The figures for the “half-life (t1/2)” value in series [2] (setting [10]), in series [4] (setting [12]) and in series [7] (setting [15]) were 4.2 min, 1.6 min and 4.4 min, respectively. For the same compound, the “selectivity for 5-HT2A over 5-HT1B” value in series [3] was “greater selectivity for 5-HT2A over 5-HT1B”. Besides, in series [4], the “stability in MLM” value is reported as “much lower stability (higher clearance)”. In addition, the “selectivity for 5-HT2A over adrenergic and dopamine receptors” value in series [6] (versus Alpha1A, Alpha2A, D1, D2) was “exceptional selectivity”. In series [7], the “stability in RLM” value was “much lower stability (higher clearance)”. Besides, the “5-HT2A arrestin agonist class” value in series [8] (beta-arrestin recruitment) is reported as “full agonists”.

For the compound `CCN(CC)C(=O)[C@@H]1C=C2c3cccc4[nH]cc(c34)C[C@H]2N(C)C1` [LSD, lysergic acid diethylamide, reference compound], the Emax in series [1] (HEK293, read-out: 5-HT2B % Act @ Max Dose) is 19.3%; in series [3], 98%; in series [5], 91.4%; in series [6] (HEK293, read-out: 5-HT2A % Act @ Max Dose), 108%; in series [8], 52.6%. The “half-life (t1/2)” value is listed as 71.6 min in series [2] (human, microsomes, pH 7.4); 31.3 min in series [4] (mouse, microsomes, pH 7.4); 60.2 min in series [7] (rat, microsomes, pH 7.4). Moreover, the “5-HT2A arrestin agonist class” value in series [8] is “partial agonists”.

Values taken from patent US20260317319A1, “NOVEL ERGOLINES AND METHODS OF TREATING MOOD DISORDERS” (Gilgamesh Pharma Inc., priority 2023, published 2026).
